Measurements published in patent US20260250251A1, “HETEROCYCLIC COMPOUNDS AS PI3Ka INHIBITORS” (Pikavation Therapeutics, Inc., priority 2022, published 2026).

Experiments:
[1] = system: SKBR3 (PIK3CA WT) cells, pSer473 AKT; test: pS473 AKT assay in SKBR3 cells; format: cell-based; settings: Homo sapiens, SK-BR-3, treated 2 h, read-out: SKBR3_IC50
How it was run: (§1)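 Cells exposed 2 h to a range of PI3Kα inhibitor concentrations, then paraformaldehyde-fixed and probed for pSer473 AKT with rabbit primary overnight at 4 °C and HRP anti-rabbit secondary. Chemiluminescent cell-based ELISA read-out; IC50 from concentration-response fitting.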

[2] = system: T47D (PIK3CA H1047R) cells, pSer473 AKT; test: pS473 AKT assay in T47D cells; format: cell-based; settings: Homo sapiens, treated 2 h, read-out: T47D_IC50
How it was run: as §1

Row | SMILES | IC50 [1] | IC50 [2]
1 | Cn1nc(N)c2c(Oc3cc(F)ccc3Cl)c(NC(=O)c3cncc(C(F)(F)F)c3)cc(Cl)c21 [Example 62, N-(3-Amino-7-chloro-4-(2-chloro-5-fluorophenoxy)-1-methyl-1H-indazol-5-yl)-5-(trifluoromethyl)nicotinamide] | 1000 to 5000 nM | < 1000 nM
2 | Cn1nc(N)c2c(Oc3cc(F)ccc3Cl)c(NC(=O)c3cc(F)cc(C(F)(F)F)c3)cc(-c3cncnc3)c21 [Example 29, N-(3-Amino-4-(2-chloro-5-fluorophenoxy)-1-methyl-7-(pyrimidin-5-yl)-1H-indazol-5-yl)-3-fluoro-5-(trifluoromethyl)benzamide] | 1000 to 5000 nM | < 1000 nM
3 | Cn1nc(N)c2c(Oc3cc(F)ccc3Cl)c(NC(=O)c3cc(F)cc(C(F)(F)F)c3)cc(C#CC3CCOC3)c21 (stereo not shown) [Example 41, N-(3-Amino-4-(2-chloro-5-fluorophenoxy)-1-methyl-7-((tetrahydrofuran-3-yl)ethynyl)-1H-indazol-5-yl)-3-fluoro-5-(trifluoromethyl)benzamide] | 1000 to 5000 nM | < 1000 nM
4 | Nc1n[nH]c2ccc(NC(=O)c3cc(F)cc(C(F)(F)F)c3)c(Cc3cc(F)ccc3Cl)c12 [Example 5, N-(3-Amino-4-(2-chloro-5-fluorobenzyl)-1H-indazol-5-yl)-3-fluoro-5-(trifluoromethyl)benzamide] | 5000 to 10000 nM | 1000 to 5000 nM
5 | C#Cc1cc(NC(=O)c2cc(F)cc(C(F)(F)F)c2)c(Oc2cc(F)ccc2Cl)c2c(N)nn(C)c12 [Example 47, N-(3-Amino-4-(2-chloro-5-fluorophenoxy)-7-ethynyl-1-methyl-1H-indazol-5-yl)-3-fluoro-5-(trifluoromethyl)benzamide] | 1000 to 5000 nM | < 1000 nM
6 | Nc1nn2c3c(cc(NC(=O)c4cc(F)cc(C(F)(F)F)c4)c(Oc4cc(F)ccc4Cl)c13)-c1ccccc1C2 [Example 70, N-(4-Amino-3-(2-chloro-5-fluorophenoxy)-7H-pyrazolo[4,5,1-de]phenanthridin-2-yl)-3-fluoro-5-(trifluoromethyl)benzamide] | ≥ 10000 nM | < 1000 nM

Second part, the molecule after the results:

Row | IC50 [1] | IC50 [2] | SMILES
7 | 1000 to 5000 nM | < 1000 nM | Cn1nc(N)c2c(Oc3cc(F)ccc3Cl)c(NC(=O)c3cc(F)cc(C(F)(F)F)c3)cc(C#CC3(C)COC3)c21 [Example 46, N-(3-Amino-4-(2-chloro-5-fluorophenoxy)-1-methyl-7-((3-methyloxetan-3-yl)ethynyl)-1H-indazol-5-yl)-3-fluoro-5-(trifluoromethyl)benzamide]
8 | < 1000 nM | < 1000 nM | Cn1nc(N)c2c(Oc3cc(F)ccc3Cl)c(NC(=O)c3cc(F)cc(C(F)(F)F)c3)cc(CC#N)c21 [Example 31, N-(3-Amino-4-(2-chloro-5-fluorophenoxy)-7-(cyanomethyl)-1-methyl-1H-indazol-5-yl)-3-fluoro-5-(trifluoromethyl)benzamide]
9 | < 1000 nM | < 1000 nM | Cn1nc(N)c2c(Oc3cc(F)ccc3Cl)c(NC(=O)c3cc(F)cc(C(F)(F)F)c3)cc(CCC#N)c21 [Example 59, N-(3-Amino-4-(2-chloro-5-fluorophenoxy)-7-(2-cyanoethyl)-1-methyl-1H-indazol-5-yl)-3-fluoro-5-(trifluoromethyl)benzamide]
10 | < 1000 nM | < 1000 nM | Cn1nc(N)c2c(Oc3cc(F)ccc3Cl)c(NC(=O)c3cc(F)cc(C(F)(F)F)c3)cc(C#CC3(N)CC3)c21 [Example 45, N-(3-Amino-7-((1-aminocyclopropyl)ethynyl)-4-(2-chloro-5-fluorophenoxy)-1-methyl-1H-indazol-5-yl)-3-fluoro-5-(trifluoromethyl)benzamide]
11 | < 1000 nM | < 1000 nM | Cn1nc(N)c2c(Oc3cc(F)ccc3Cl)c(NC(=O)c3cc(F)cc(C(F)(F)F)c3)cc(C#CC3(CO)CC3)c21 [Example 44, N-(3-Amino-4-(2-chloro-5-fluorophenoxy)-7-((1-(hydroxymethyl)cyclopropyl)ethynyl)-1-methyl-1H-indazol-5-yl)-3-fluoro-5-(trifluoromethyl)benzamide]
12 | < 1000 nM | < 1000 nM | Nc1nn2c(=O)c3ccccc3c3cc(NC(=O)c4cc(F)cc(C(F)(F)F)c4)c(Oc4cc(F)ccc4Cl)c1c32 [Example 73, N-(4-Amino-3-(2-chloro-5-fluorophenoxy)-7-oxo-7H-pyrazolo[4,5,1-de]phenanthridin-2-yl)-3-fluoro-5-(trifluoromethyl)benzamide]
13 | < 1000 nM | < 1000 nM | Cn1nncc1-c1cc(NC(=O)c2cc(F)cc(C(F)(F)F)c2)c(Oc2cc(F)ccc2Cl)c2c(N)nn(C)c12 [Example 30, N-(3-Amino-4-(2-chloro-5-fluorophenoxy)-1-methyl-7-(1-methyl-1H-1,2,3-triazol-5-yl)-1H-indazol-5-yl)-3-fluoro-5-(trifluoromethyl)benzamide]
14 | < 1000 nM | < 1000 nM | Cn1nc(N)c2c(Oc3cc(F)ccc3Cl)c(NC(=O)c3cc(F)cc(C(F)(F)F)c3)cc(Br)c21 [Example 25, N-(3-Amino-7-bromo-4-(2-chloro-5-fluorophenoxy)-1-methyl-1H-indazol-5-yl)-3-fluoro-5-(trifluoromethyl)benzamide]
